For orientation: Inhibition means how much of the control response was suppressed. Low values mean a weak effect, high ones a strong effect.

Series [1] concerns Escherichia coli. Briefly: Genotoxicity in Escherichia coli PQ37 assessed as ratio of beta-galactosidase/AP activity in presence and absence of drug at 10 ug. The format is toxicity, organism-based.
Series [2] concerns Escherichia coli. Briefly: Inhibition of nifuroxazide-induced genotoxicity in Escherichia coli PQ37 at 2 ug by SOS chromotest. It is filed as functional.
The test system of series [3] is Escherichia coli. Nature of the series: Inhibition of nifuroxazide-induced genotoxicity in Escherichia coli PQ37 at 10 ug by SOS chromotest. It is filed as functional.
Series [4] concerns Escherichia coli. Nature of the series: Inhibition of nifuroxazide-induced genotoxicity in Escherichia coli PQ37 at 50 ug by SOS chromotest. It is filed as functional.
In series [5] the test system is Escherichia coli. Briefly: Genotoxicity in Escherichia coli PQ37 assessed as ratio of beta-galactosidase/AP activity in presence and absence of drug at 50 ug. It is filed as toxicity, organism-based.
Series [6] has as its system Escherichia coli. Briefly: Genotoxicity in Escherichia coli PQ37 assessed as ratio of beta-galactosidase/AP activity in presence and absence of drug at 2 ug. It is filed as toxicity, organism-based.
Series [7] relates to Escherichia coli. Briefly: Genotoxicity in Escherichia coli PQ37 assessed as ratio of beta-galactosidase/AP activity in presence and absence of drug at 5 ug. The format is toxicity, organism-based.

For `Cc1nc2c3c(ncn2n1)Oc1ccc2ccccc2c1C3C(C)C` (stereo not drawn), the figures for the Ratio in series [1], in series [5] and in series [6] were 1.1, 1.39 and 1.01, respectively. Further, the figures for the Inhibition in series [2], in series [3] and in series [4] were 99%, 98% and 95%, respectively.
For `c1ccc(-c2nc3c4c(ncn3n2)Oc2ccc3ccccc3c2C4c2ccccc2)cc1` (stereo not drawn), the Ratio in series [1] is 1.24; in series [5], 1.4; in series [6], 1.02. Further, the Inhibition in series [2] is 78%; in series [3] it was 86%; in series [4], 99%.
For the compound `Clc1ccccc1C1c2c(ccc3ccccc23)Oc2ncn3nc(-c4ccccc4)nc3c21` (stereo not drawn), the values for the Ratio in series [1], in series [5] and in series [6] were 1.21, 1.62 and 1.16, respectively. Further, the Inhibition in series [2] was 64%; in series [3], 60%; in series [4], 48%.
As for `Clc1ccc(C2c3c(ccc4ccccc34)Oc3ncn4nc(-c5ccccc5)nc4c32)cc1` (stereo not drawn), the values for the Ratio in series [1], in series [5] and in series [6] were 1.33, 1.67 and 1.44, respectively. Further, the Inhibition came to 32% in series [2], 38% in series [3] and 48% in series [4].
For `CC(C)C1c2c(ccc3ccccc23)Oc2ncn3nc(-c4ccccc4)nc3c21` (stereo not drawn), the Ratio in series [1] came to 1.19; in series [5], 1.25; in series [6], 1.11. The Inhibition worked out at 62% in series [2], 61% in series [3] and 63% in series [4].
Turning to `Cc1nc2c3c(ncn2n1)Oc1ccc2ccccc2c1C3c1ccccc1` (stereo not drawn), the Ratio in series [1] stood at 1.32; in series [5], 1.56; in series [6], 1.12. For the same compound, the values for the Inhibition in series [2], in series [3] and in series [4] were 70%, 61% and 56%, respectively.
Take `c1ccc(-c2nc3c4c(ncn3n2)Oc2ccc3ccccc3c2C4c2ccco2)cc1` (stereo not drawn): the Ratio in series [1] is reported as 1.4; in series [5] it was 1.3; in series [6] it was 1.3. Further, the Inhibition is 99% in series [2], 99% in series [3] and 75% in series [4].
Take `O=C(N/N=C/c1ccc([N+](=O)[O-])o1)c1ccc(O)cc1` [NIFUROXAZIDE]: the Ratio in series [7] was 12.88.
